Data on one compound can be found in article PMC5484120 (Marine Drugs, 2017).

The structures appear in SMILES notation.

The target of this experiment is T1, rα1β1εδ nAChR (UniProt P20782+P25108+P25109+P25110).
T1 construct: expressed in transfected cells; host or cells: Xenopus laevis oocytes injected with cRNA
As to the kind of experiment: cell-based. More on the design: species or system rodent: rat (α1, β1, and δ), mouse (ε).

T1 sequence (P20782 21-493): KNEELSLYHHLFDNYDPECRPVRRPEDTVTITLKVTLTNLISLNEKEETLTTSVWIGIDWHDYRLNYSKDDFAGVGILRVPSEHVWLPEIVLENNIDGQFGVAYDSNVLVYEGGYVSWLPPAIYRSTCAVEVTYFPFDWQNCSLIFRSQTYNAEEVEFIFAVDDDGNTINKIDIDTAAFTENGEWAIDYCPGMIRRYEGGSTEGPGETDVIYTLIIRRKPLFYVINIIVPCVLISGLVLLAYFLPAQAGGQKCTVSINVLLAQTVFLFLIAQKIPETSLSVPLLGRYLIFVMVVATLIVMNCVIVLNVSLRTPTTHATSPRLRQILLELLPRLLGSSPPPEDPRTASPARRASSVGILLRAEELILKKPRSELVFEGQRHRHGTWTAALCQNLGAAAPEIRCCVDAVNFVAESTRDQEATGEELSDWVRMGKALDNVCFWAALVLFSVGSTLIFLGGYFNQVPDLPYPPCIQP
T1 sequence (P25108 21-457): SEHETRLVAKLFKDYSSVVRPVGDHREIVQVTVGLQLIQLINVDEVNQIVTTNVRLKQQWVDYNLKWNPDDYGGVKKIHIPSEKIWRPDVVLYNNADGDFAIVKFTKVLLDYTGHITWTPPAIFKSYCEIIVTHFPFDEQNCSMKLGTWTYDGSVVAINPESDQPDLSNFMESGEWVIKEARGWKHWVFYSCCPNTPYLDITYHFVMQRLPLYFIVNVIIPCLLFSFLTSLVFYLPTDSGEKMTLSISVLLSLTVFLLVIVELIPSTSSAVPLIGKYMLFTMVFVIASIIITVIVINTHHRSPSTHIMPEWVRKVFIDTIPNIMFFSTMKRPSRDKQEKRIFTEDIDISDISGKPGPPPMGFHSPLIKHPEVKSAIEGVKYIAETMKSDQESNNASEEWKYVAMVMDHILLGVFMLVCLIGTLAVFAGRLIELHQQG
T1 sequence (P25109 24-501): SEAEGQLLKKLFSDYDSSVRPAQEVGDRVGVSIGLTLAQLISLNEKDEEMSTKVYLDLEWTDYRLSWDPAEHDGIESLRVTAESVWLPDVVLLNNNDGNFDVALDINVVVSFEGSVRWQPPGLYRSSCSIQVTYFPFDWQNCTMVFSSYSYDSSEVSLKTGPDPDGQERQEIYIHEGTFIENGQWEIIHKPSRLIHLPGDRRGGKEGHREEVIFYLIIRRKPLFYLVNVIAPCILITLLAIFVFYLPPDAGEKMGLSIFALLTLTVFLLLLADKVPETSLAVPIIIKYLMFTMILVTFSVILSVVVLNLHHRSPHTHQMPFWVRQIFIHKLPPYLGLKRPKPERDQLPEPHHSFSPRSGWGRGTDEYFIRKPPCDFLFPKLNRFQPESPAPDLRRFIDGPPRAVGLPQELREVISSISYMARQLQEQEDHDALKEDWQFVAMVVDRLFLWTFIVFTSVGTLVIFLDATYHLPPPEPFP
T1 sequence (P25110 22-517): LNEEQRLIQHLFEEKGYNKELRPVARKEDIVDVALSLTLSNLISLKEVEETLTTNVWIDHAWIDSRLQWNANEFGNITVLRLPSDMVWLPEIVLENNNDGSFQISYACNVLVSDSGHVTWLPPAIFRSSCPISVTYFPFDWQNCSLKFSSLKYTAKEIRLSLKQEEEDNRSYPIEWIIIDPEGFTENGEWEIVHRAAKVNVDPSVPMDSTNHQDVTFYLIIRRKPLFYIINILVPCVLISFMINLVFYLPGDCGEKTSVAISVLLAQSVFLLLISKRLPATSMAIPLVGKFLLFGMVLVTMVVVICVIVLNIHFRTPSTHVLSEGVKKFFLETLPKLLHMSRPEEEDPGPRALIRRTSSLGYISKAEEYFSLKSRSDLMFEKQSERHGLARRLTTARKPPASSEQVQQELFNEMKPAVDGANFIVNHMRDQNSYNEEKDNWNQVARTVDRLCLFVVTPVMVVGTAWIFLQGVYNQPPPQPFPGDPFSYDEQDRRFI

On to `CSCC[C@H](NC(=O)[C@H](CC(C)C)NC(=O)[C@H](C)N)C(=O)N[C@@H](CO)C(=O)N[C@H](C(=O)NCC(=O)N[C@H](C(=O)N[C@@H](CC(N)=O)C(=O)N[C@@H](Cc1ccc(O)cc1)C(=O)N[C@@H](CCCNC(=N)N)C(=O)N[C@@H](CC(C)C)C(=O)N[C@@H](CC(C)C)C(=O)N[C@@H](CCCCN)C(=O)N[C@H](C(=O)N[C@@H](CSCC(N)=O)C(=O)N[C@@H](CCCNC(=N)N)C(=O)NCC(=O)N[C@@H](CO)C(=O)NCC(=O)N[C@@H](CCCNC(=N)N)C(=O)N[C@@H](Cc1ccc(O)cc1)C(=O)N[C@@H](CSCC(N)=O)C(=O)N[C@@H](CCCNC(=N)N)C(=O)N[C@@H](CO)C(=O)N1CCC[C@H]1C(=O)N[C@@H](Cc1ccc(O)cc1)C(=O)O)[C@@H](C)O)[C@@H](C)O)[C@@H](C)O` [GeXXVIIA-L-Nter], for which the IC50 stood at 2190 ± 240 nM and the “IC50 relative to GeXXVIIA-L, rα1β1εδ nAChR” value was “about three-fold higher than GeXXVIIA-L”.

As a reminder, the IC50 is the concentration needed to halve the response being measured. Lower therefore signals inhibition by little substance.
